Assay results as given in patent US8481531B2, “Bicyclic heterocyclyl derivatives as FGFR kinase inhibitors for therapeutic use” (Astex Therapeutics Ltd, priority 2009, dated 2013).

Key:
[1] = test system: parental wild-type Ba/F3 cells; assay: Ba/F3 (WT) cell proliferation assay (Alamar Blue); format: cell-based; conditions: BaF3, 72 hours, read-out: BaF3 WT prolif; for IC50: with mouse IL-3
Protocol: (§1) Ba/F3-TEL-FGFR3 & Ba/F3 (WT) Cell Proliferation Assays
(§2) Stably transfected Ba/F3-TEL-FGFR3 cells were plated out into black 96-well tissue culture plates with clear bottoms in RPMI medium containing 10% FBS and 0.25 mg/ml G418 at a density of 5×10^3 cells/well (200 μl per well). The parental wild-type Ba/F3 cells (DSMZ no.: ACC 300) were plated out into black 96-well tissue culture plates with clear bottoms in RPMI medium containing 10% FBS and 2 ng/ml mouse IL-3 (R&D Systems) at a density of 2.5×10^3 cells/well (200 μl per well). Plates were placed in an incubator overnight before adding the compounds the following day. Dilutions of compounds were made in DMSO starting at 10 mM and were diluted into the wells to give a final DMSO concentration of 0.1% in assay. Compounds were left on the cells for 72 hours before the plates were removed from the incubator and 20 μl of Alamar Blue™ (Biosource) was added to each well. Plates were placed in the incubator for 4-6 hours before reading plates at 535 nm (excitation)/590 nm (emission) on a Fusion plate reader (Packard). Where inhibition is high an IC50 can be determined.

FGFR3 = biological target: T1, FGFR3 (Homo sapiens, UniProt P22607); assay: FGFR3 in vitro kinase inhibitory activity assay (TRF); format: biochemical; conditions: 8 μM ATP, 3 hours; read-out: FGFR3 IC50(μM) or % I
T1 construct: purchased Upstate
T1 sequence (P22607 23-806): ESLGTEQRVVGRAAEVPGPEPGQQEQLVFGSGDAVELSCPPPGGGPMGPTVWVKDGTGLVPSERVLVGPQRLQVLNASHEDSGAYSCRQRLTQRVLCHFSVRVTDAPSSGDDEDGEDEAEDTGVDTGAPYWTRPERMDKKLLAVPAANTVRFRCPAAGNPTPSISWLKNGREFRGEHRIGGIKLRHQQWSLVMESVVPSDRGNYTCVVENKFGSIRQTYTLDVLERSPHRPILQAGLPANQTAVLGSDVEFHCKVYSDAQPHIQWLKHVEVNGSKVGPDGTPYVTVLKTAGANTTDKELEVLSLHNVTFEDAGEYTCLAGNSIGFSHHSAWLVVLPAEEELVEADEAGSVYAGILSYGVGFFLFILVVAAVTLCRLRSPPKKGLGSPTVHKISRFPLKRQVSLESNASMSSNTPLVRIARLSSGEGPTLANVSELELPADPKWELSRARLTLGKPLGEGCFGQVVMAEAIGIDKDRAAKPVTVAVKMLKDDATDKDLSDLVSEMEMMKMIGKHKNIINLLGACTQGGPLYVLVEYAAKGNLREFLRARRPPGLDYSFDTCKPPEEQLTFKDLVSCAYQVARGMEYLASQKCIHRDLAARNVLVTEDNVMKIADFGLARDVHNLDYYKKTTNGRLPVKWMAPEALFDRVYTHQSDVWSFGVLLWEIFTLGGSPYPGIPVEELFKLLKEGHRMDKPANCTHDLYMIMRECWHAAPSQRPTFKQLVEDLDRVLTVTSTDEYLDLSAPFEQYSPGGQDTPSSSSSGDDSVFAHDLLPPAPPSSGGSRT
Protocol: (§3) FGFR3, VEGFR2 and PDGFR in vitro Kinase Inhibitory Activity Assays
(§4) Enzymes (from Upstate), prepared at 2× final concentration, were incubated with test compounds, biotinylated Flt3 substrate (biotin-VASSDNEYFYVDF) (Cell Signalling Technology Inc.) and ATP in the appropriate assay buffer (Table 1). The reaction was allowed to proceed for 3 hours (FGFR3), 1 hour (VEGFR2, PDGFR-beta) at room temperature on a plate shaker at 700 rpm before being stopped with 35 mM EDTA, pH 8 (FGFR3, VEGFR2) or 55 mM EDTA, pH 8 (PDGFR-beta). 5× detection mix (50 mM HEPES pH 7.5, 0.1% BSA, 11.34 nM Eu-anti-pY (PY20) (PerkinElmer) 74 nM SA-XL665 (Cisbio) for FGFR3, 50 mM HEPES, pH 7.5, 0.1% BSA, 11.34 nM Eu-anti-pY (PY20), 187.5 nM SA-XL665 for VEGFR2 and 50 mM HEPES, pH 7.5, 0.1% BSA, 11.34 nM Eu-anti-pY (PT66) (PerkinElmer), 375 nM SA-XL665 (Cisbio) for PDGFR-beta) was then added to each well and the plate sealed and incubated at room temperature for one hour on a plate shaker at 700 rpm. The plate was then read on a Packard Fusion plate reader or a BMG Pherastar both in TRF mode.

VEGFR2 = biological target: T2, VEGFR2 (Homo sapiens, UniProt P35968); assay: VEGFR2 in vitro kinase inhibitory activity assay (TRF); format: biochemical; conditions: read-out: VEGFR2 IC50(μM) or % I; for IC50: 0.5 μM ATP, 1 hour
T2 construct: purchased Upstate
T2 sequence (P35968 20-1356): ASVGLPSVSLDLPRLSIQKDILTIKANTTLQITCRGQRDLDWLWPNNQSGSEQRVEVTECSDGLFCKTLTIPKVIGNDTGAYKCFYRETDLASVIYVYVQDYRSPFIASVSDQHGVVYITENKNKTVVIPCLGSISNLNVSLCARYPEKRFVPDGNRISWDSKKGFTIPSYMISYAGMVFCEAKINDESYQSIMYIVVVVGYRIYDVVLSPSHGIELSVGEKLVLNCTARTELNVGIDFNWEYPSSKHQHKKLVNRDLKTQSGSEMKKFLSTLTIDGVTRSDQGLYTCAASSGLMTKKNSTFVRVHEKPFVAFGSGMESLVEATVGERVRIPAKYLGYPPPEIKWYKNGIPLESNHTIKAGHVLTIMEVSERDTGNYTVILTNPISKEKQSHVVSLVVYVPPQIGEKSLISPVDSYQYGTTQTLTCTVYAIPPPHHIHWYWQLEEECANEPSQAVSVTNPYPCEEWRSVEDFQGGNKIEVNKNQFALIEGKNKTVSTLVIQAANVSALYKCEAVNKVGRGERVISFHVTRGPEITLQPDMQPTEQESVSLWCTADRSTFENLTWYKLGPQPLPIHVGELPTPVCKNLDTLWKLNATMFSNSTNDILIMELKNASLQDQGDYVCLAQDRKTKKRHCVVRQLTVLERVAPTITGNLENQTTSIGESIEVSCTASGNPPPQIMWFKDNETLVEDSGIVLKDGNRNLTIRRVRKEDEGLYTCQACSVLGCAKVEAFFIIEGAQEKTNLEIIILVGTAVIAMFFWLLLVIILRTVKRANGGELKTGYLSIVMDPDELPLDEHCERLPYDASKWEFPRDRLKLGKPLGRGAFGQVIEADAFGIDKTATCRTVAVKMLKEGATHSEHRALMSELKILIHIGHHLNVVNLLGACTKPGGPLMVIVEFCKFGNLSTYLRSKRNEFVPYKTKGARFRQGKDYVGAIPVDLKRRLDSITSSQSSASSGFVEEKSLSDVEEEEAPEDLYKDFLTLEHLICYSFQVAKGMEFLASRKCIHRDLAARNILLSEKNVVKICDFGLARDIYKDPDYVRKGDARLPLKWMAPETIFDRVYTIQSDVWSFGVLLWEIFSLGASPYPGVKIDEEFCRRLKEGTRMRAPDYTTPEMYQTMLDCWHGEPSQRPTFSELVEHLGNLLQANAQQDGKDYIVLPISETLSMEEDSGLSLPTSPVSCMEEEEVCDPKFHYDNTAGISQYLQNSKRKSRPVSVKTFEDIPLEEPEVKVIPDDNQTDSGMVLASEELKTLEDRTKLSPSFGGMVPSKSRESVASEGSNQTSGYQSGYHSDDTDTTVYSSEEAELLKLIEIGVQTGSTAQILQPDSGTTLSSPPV
Protocol: as §3, §4

Ba/F3-TEL-FGFR3 cells = biological target: T3, Ba/F3-TEL-FGFR3 cells (Homo sapiens, UniProt P22607); assay: Ba/F3-TEL-FGFR3 cell proliferation assay (Alamar Blue); format: cell-based; conditions: 72 hours; for GI50: read-out: BaF3-TEL-FGFR3 prolif
T3 construct: fused on or other part: P41212 (Transcription factor ETV6)
T3 sequence (P22607 whole entry, change not shown, the tested form may be a part): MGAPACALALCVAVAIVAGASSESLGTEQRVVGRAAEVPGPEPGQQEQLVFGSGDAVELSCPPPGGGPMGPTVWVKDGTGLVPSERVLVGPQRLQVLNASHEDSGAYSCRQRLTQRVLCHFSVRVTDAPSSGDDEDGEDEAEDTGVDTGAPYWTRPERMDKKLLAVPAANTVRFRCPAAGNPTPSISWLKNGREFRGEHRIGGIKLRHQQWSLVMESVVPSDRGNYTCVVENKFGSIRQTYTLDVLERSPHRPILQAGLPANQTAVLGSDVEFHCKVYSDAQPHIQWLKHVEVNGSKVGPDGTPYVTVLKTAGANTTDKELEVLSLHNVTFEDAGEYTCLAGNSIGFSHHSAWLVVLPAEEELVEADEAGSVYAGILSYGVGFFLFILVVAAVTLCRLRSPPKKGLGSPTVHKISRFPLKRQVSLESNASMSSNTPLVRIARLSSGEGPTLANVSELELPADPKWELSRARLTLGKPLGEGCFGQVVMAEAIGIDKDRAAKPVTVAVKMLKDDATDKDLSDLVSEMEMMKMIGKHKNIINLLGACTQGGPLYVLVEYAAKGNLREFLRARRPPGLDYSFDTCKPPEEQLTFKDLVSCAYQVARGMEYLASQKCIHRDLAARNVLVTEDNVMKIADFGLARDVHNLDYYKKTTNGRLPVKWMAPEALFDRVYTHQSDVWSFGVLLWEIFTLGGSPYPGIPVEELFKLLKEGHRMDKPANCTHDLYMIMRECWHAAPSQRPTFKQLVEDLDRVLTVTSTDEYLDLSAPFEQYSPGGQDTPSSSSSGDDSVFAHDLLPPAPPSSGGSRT
Protocol: as §1, §2

Row | Structure (SMILES) | IC50 (FGFR3) [µM] | IC50 (VEGFR2) [µM] | GI50 (Ba/F3-TEL-FGFR3 cells) [nM] | BaF3-TEL-FGFR3 prolif (μM) (Ba/F3-TEL-FGFR3 cells; % at 10.0 μM) [% at] | inhibition at 1 µM (VEGFR2; 1 h, % I at 1 μM) [%] | BaF3-TEL-FGFR3 prolif (μM) (Ba/F3-TEL-FGFR3 cells; % at 1.00 μM) [% at] | BaF3-TEL-FGFR3 prolif (μM) (Ba/F3-TEL-FGFR3 cells; % at 3.00 μM) [% at] | inhibition at 10 µM ([1]; Mus musculus) [%] | inhibition at 3 µM ([1]; Mus musculus) [%] | IC50 [1] [nM] | inhibition at 1 µM ([1]; Mus musculus, % at 1.00 μM) [%]
1 | CON=C(CC1CC1)c1ccn2c(-c3cccc(NC(=O)NCC(F)(F)F)c3)cnc2c1 [Compound 1-29, 1-[3-(7-{2-Cyclopropyl-1-methoxyimino-ethyl}-imidazo[1,2-a]pyridin-3-yl)-phenyl]-3-(2,2,2-trifluoro-ethyl)-urea] | 0.059 | > 1 |  | 28.0 |  |  |  | 16 |  |  | 
2 | O=C(NCC(F)(F)F)Nc1cccc(-c2cnc3cc(C=NOCc4ccc(Cl)s4)ccn23)c1 [Compound 1-8, 1-(3-{7-[(5-Chloro-thiophen-2-ylmethoxyimino)-methyl]-imidazo[1,2-a]pyridin-3-yl}-phenyl)-3-(2,2,2-trifluoro-ethyl)-urea] | 0.215 | > 10 | 17.5 |  |  |  |  |  |  | 828 | 
3 | COC1CCN(CCCON=Cc2ccn3c(-c4cccc(NC(=O)NCC(F)(F)F)c4)cnc3c2)CC1 [Compound 1-36, 1-[3-(7-{[3-(4-Methoxy-piperidin-1-yl)-propoxyimino]-methyl}-imidazo[1,2-a]pyridin-3-yl)-phenyl]-3-(2,2,2-trifluoro-ethyl)-urea] | 0.024 | 0.36 | 380 |  |  |  |  |  | 34 |  | 
4 | CN1CCN(C(=O)CCON=Cc2ccn3c(-c4cccc(NC(=O)NCC(F)(F)F)c4)cnc3c2)CC1 [Compound 1-51, 1-[3-(7-{[3-(4-Methyl-piperazin-1-yl)-3-oxo-propoxyimino]-methyl}-imidazo[1,2-a]pyridin-3-yl)-phenyl]-3-(2,2,2-trifluoro-ethyl)-urea] | 0.033 | 0.88 | 2200 |  |  |  |  | 27 |  |  | 
5 | CN(CCO)CCON=Cc1ccn2c(-c3cccc(NC(=O)NCC(F)(F)F)c3)cnc2c1 [Compound 1-58, 1-{3-[7-({2-[(2-Hydroxy-ethyl)-methyl-amino]-ethoxyimino}-methyl)-imidazo[1,2-a]pyridin-3-yl]-phenyl}-3-(2,2,2-trifluoro-ethyl)-urea] | 0.029 | 0.34 | 780 |  |  |  |  | 55 |  |  | 
6 | CS(=O)(=O)CCNCCON=Cc1ccn2c(-c3cccc(NC(=O)NCC(F)(F)F)c3)cnc2c1 [Compound 1-52, 1-[3-(7-{[2-(2-Methanesulfonyl-ethylamino)-ethoxyimino]-methyl}-imidazo[1,2-a]pyridin-3-yl)-phenyl]-3-(2,2,2-trifluoro-ethyl)-urea] | 0.026 | 0.73 | 4900 |  |  |  |  | 25 |  |  | 
7 | O=C(NCC(F)(F)F)Nc1cccc(-c2cnc3cc(C=NOCCCN4CCCC4)ccn23)c1 [Compound 1-35, 1-(3-{7-[(3-Pyrrolidin-1-yl-propoxyimino)-methyl]-imidazo[1,2-a]pyridin-3-yl}-phenyl)-3-(2,2,2-trifluoro-ethyl)-urea] | 0.023 | 0.33 | 560 |  |  |  |  |  | 28 |  | 
8 | CN1CCC(NCCCON=Cc2ccn3c(-c4cccc(NC(=O)NCC(F)(F)F)c4)cnc3c2)CC1 [Compound 1-34, 1-[3-(7-{[3-(1-Methyl-piperidin-4-ylamino)-propoxyimino]-methyl}-imidazo[1,2-a]pyridin-3-yl)-phenyl]-3-(2,2,2-trifluoro-ethyl)-urea] | 0.038 | 0.26 |  | 60.0 |  |  |  | 0 |  |  | 
9 | O=C(NCC(F)(F)F)Nc1cccc(-c2cnc3cc(C=NOCC4CC4)ccn23)c1 [Compound 1-11, 1-{3-[7-(Cyclopropylmethoxyimino-methyl)-imidazo[1,2-a]pyridin-3-yl]-phenyl}-3-(2,2,2-trifluoro-ethyl)-urea] | 0.027 |  | 600 |  | 46 |  |  |  |  | 880 | 
10 | N#CCCN1CCN(CCCON=Cc2ccn3c(-c4cccc(NC(=O)NCC(F)(F)F)c4)cnc3c2)CC1 [Compound 1-60, 1-{3-[7-({3-[4-(2-Cyano-ethyl)-piperazin-1-yl]-propoxyimino}-methyl)-imidazo[1,2-a]pyridin-3-yl]-phenyl}-3-(2,2,2-trifluoro-ethyl)-urea] | 0.022 | 0.56 |  |  |  | 85.0 |  |  |  |  | 0
11 | O=C(NCC(F)(F)F)Nc1cccc(-c2cnc3cc(C=NOCCC4CCNCC4)ccn23)c1 [Compound 1-59, 1-(3-{7-[(2-Piperidin-4-yl-ethoxyimino)-methyl]-imidazo[1,2-a]pyridin-3-yl}-phenyl)-3-(2,2,2-trifluoro-ethyl)-urea] | 0.024 | 0.33 |  |  |  |  | 42.0 | 11 |  |  | 

Stronger by IC50 (FGFR3), values ahead:

Row | IC50 (FGFR3) [µM] | IC50 (VEGFR2) [µM] | GI50 (Ba/F3-TEL-FGFR3 cells) [nM] | BaF3-TEL-FGFR3 prolif (μM) (Ba/F3-TEL-FGFR3 cells; % at 10.0 μM) [% at] | inhibition at 1 µM (VEGFR2; 1 h, % I at 1 μM) [%] | BaF3-TEL-FGFR3 prolif (μM) (Ba/F3-TEL-FGFR3 cells; % at 1.00 μM) [% at] | BaF3-TEL-FGFR3 prolif (μM) (Ba/F3-TEL-FGFR3 cells; % at 3.00 μM) [% at] | Structure (SMILES) | inhibition at 10 µM ([1]; Mus musculus) [%] | inhibition at 3 µM ([1]; Mus musculus) [%] | IC50 [1] [nM] | inhibition at 1 µM ([1]; Mus musculus, % at 1.00 μM) [%]
12 | 0.0019 | 0.03 | 46 |  |  |  |  | C/C(=N\O)c1ccn2c(-c3cccc(NC(=O)NCC(F)(F)F)c3)cnc2c1 [Compound 1-21, 1-[3-(7-{1-Hydroxyimino-ethyl}-imidazo[1,2-a]pyridin-3-yl)-phenyl]-3-(2,2,2-trifluoro-ethyl)-urea] | 17 |  |  | 
13 | 0.019 | 0.33 | 1400 |  |  |  |  | O=C(NCC(F)(F)F)Nc1cccc(-c2cnc3cc(C=NOCCC4CCN(CCO)CC4)ccn23)c1 [Compound 1-49, 1-{3-[7-({2-[1-(2-Hydroxy-ethyl)-piperidin-4-yl]-ethoxyimino}-methyl)-imidazo[1,2-a]pyridin-3-yl]-phenyl}-3-(2,2,2-trifluoro-ethyl)-urea] |  | 36 |  | 
14 | 0.011 | 0.24 | 320 |  |  |  |  | CCC(=NOC)c1ccn2c(-c3cccc(NC(=O)NCC(F)(F)F)c3)cnc2c1 [Compound 1-25, 1-[3-(7-{1-Methoxyimino-propyl}-imidazo[1,2-a]pyridin-3-yl)-phenyl]-3-(2,2,2-trifluoro-ethyl)-urea] |  | 46 |  | 
15 | 0.021 | 0.62 | 500 |  |  |  |  | O=C(NCC(F)(F)F)Nc1cccc(-c2cnc3cc(C=NOCCO)ccn23)c1 [Compound 1-54, 1-(3-{7-[(2-Hydroxy-ethoxyimino)-methyl]-imidazo[1,2-a]pyridin-3-yl}-phenyl)-3-(2,2,2-trifluoro-ethyl)-urea] |  |  | 510 | 
16 | 0.0194 | 0.635 | 210 |  |  |  |  | COCCON=Cc1ccn2c(-c3cccc(NC(=O)NCC(F)(F)F)c3)cnc2c1 [Compound 1-1, 1-(3-{7-[(2-Methoxy-ethoxyimino)-methyl]-imidazo[1,2-a]pyridin-3-yl}-phenyl)-3-(2,2,2-trifluoro-ethyl)-urea] |  |  | 310 | 
17 | 0.0023 | 0.051 |  | 0.000 |  |  |  | C/C(=N\OCCCO)c1ccn2c(-c3cccc(NC(=O)NCC(F)(F)F)c3)cnc2c1 [Compound 1-47, 1-[3-(7-{1-[3-Hydroxy-propoxyimino]-ethyl}-imidazo[1,2-a]pyridin-3-yl)-phenyl]-3-(2,2,2-trifluoro-ethyl)-urea] | 63 |  |  | 
18 | 0.0045 | 0.083 | 120 |  |  |  |  | CCC(=NO)c1ccn2c(-c3cccc(NC(=O)NCC(F)(F)F)c3)cnc2c1 [Compound 1-26, 1-[3-(7-{1-Hydroxyimino-propyl}-imidazo[1,2-a]pyridin-3-yl)-phenyl]-3-(2,2,2-trifluoro-ethyl)-urea] | 40 |  |  | 
19 | 0.0031 | 0.068 | 32 |  |  |  |  | C/C(=N\OCCOCCO)c1ccn2c(-c3cccc(NC(=O)NCC(F)(F)F)c3)cnc2c1 [Compound 1-46, 1-[3-(7-{1-[2-(2-Hydroxy-ethoxy)-ethoxyimino]-ethyl}-imidazo[1,2-a]pyridin-3-yl)-phenyl]-3-(2,2,2-trifluoro-ethyl)-urea] | 39 |  |  | 
